Like-named read-outs stand apart in the source and are kept apart here.
Key:
[1] = Venetoclax plasma PK in combination with enzalutamide (LC–MS/MS, non-compartmental); format: in vivo, human; details: for half-life: read-out: D1 t½ (converted); for AUC(0-inf): read-out: D1 AUC0-inf; for Tmax: read-out: D1 Tmax
Method: A volume of 50 μL of the standard, QC, or sample plasma was pipetted into a microfuge tube and 10 μL of internal standard (IS; 500 ng/mL ^2H7-venetoclax) was added to each. Next, 200 μL of acetonitrile was added followed by vortexing for 30 s. Samples were centrifuged at 17,200 × g at room temperature for 10 min. Supernatants were transferred to autosampler vials, followed by injection of 5 μL into the LC–MS/MS system. The LC system consisted of an Exion autosampler with binary pump (Sciex, Framingham, MA, USA), Synergi Polar-RP C18 (4 µm, 2.1 × 50 mm) column kept at 30 °C. The autosampler temperature was also kept at 10 °C. Mobile phase solvent A consisted of 0.1% formic acid in water and mobile phase solvent B consisted of 0.1% formic acid in acetonitrile, mixed at 60% B. A. flow rate of 0.4 mL/min between 0–3 min and 1 mL/min from 3–5 min. Retention time of venetoclax was 1.7 min. MS detection was carried out using an ABI SCIEX (Concord, ON, Canada) 4500 tandem mass spectrometer with electrospray ionization in positive multiple reaction monitoring (MRM) mode, monitoring m/z transitions: 868.40 > 836.3 for venetoclax and 875.4 > 643.3 for venetoclax IS. QC based accuracies (N = 6, each of 3 days) were 100.9–106.2%. The intra- and inter-assay precisions were < 10.6% and < 2.4%.

AR−/lo LAPC9-CRPC = system: AR−/lo LAPC9-CRPC; parameters: method as in PMID 30190514; details: single agent; cited from earlier work
CLL = details: cited from earlier work
[2] = Total (N = 10), venetoclax 400–800 mg with enzalutamide 160 mg/d, geometric mean (geometric SD)
[3] = Total (N = 10), venetoclax 400–800 mg with enzalutamide 160 mg/d, geometric mean (geometric SD), listed as Venetoclax
[4] = male, human, plasma, oral, 400 mg
[5] = male, human, plasma, oral, 600 mg
[6] = male, human, plasma, oral, 800 mg
[7] = venetoclax 400 mg (N = 3) with enzalutamide 160 mg/d, plasma, geometric mean (geometric SD)
[8] = venetoclax 600 mg (N = 3) with enzalutamide 160 mg/d, plasma, geometric mean (geometric SD)
[9] = venetoclax 800 mg (N = 4) with enzalutamide 160 mg/d, plasma, geometric mean (geometric SD)

D1 Cl/F [1, 2]: approximately 42 L/h
D1 Cmax/Dose [1, 2]: 1.54 (1.54) µg/L/mg
D1 Tmax [1, 2]: 6.0 (1.3) h
D15 Cmin [1, 2]: 188 (2.17) µg/L
D1 Cl/F [1, 3]: 42.1 (1.76) L/h
D1 t½ [1, 3]: 8.9 (1.6) h
Ratio D29/D1 (day 29 AUC0–24 over day 1 AUC0-inf) ([1]; Total, venetoclax 400–800 mg with enzalutamide 160 mg/d, geometric mean (geometric SD)): 0.77 (2.90)
Variability of the ratio of day 29 AUC0–24 over day 1 AUC0-inf ([1]; corresponding to geometric SD 2.90): 190 %CV
AUC(0-t) ([1]; human, plasma, oral, 800 mg, venetoclax 800 mg with enzalutamide 160 mg/d, plasma, N = 1 on D29, read-out: D29 AUC0-24): 8870 ng·h/mL
Cmax ([1]; human, plasma, oral, 800 mg, venetoclax 800 mg with enzalutamide 160 mg/d, plasma, N = 1 on D29, read-out: D29 Cmax): 1000 ng/mL
Increase in venetoclax apparent clearance ([1]; in combination with enzalutamide, versus previously reported values): 2–threefold
clearance ([1]; male, human, plasma, oral): ~700 mL/min
AUC(0-t) ([1]; male, human, plasma, oral, 400 mg, venetoclax 400 mg (N = 3) with enzalutamide 160 mg/d, plasma, geometric mean (geometric SD), read-out: D1 AUC0-last): 8020 ng·h/mL
Cmax ([1]; male, human, plasma, oral, 400 mg, venetoclax 400 mg (N = 3) with enzalutamide 160 mg/d, plasma, geometric mean (geometric SD), read-out: D1 Cmax): 658 ng/mL
half-life ([1]; male, human, plasma, oral, 400 mg, venetoclax 400 mg (N = 3) with enzalutamide 160 mg/d, plasma, geometric mean (geometric SD)): 11 h
AUC(0-t) ([1]; male, human, plasma, oral, 400 mg, venetoclax 400 mg (N = 3) with enzalutamide 160 mg/d, plasma, geometric mean (geometric SD), read-out: D29 AUC0-24): 10500 ng·h/mL
Cmax ([1]; male, human, plasma, oral, 400 mg, venetoclax 400 mg (N = 3) with enzalutamide 160 mg/d, plasma, geometric mean (geometric SD), read-out: D29 Cmax): 968 ng/mL
AUC(0-inf) [1, 4]: 11100 ng·h/mL
Tmax [1, 4]: 5.2 h
AUC(0-t) ([1]; male, human, plasma, oral, 600 mg, venetoclax 600 mg (N = 3) with enzalutamide 160 mg/d, plasma, geometric mean (geometric SD), read-out: D1 AUC0-last): 12200 ng·h/mL
Cmax ([1]; male, human, plasma, oral, 600 mg, venetoclax 600 mg (N = 3) with enzalutamide 160 mg/d, plasma, geometric mean (geometric SD), read-out: D1 Cmax): 1170 ng/mL
half-life ([1]; male, human, plasma, oral, 600 mg, venetoclax 600 mg (N = 3) with enzalutamide 160 mg/d, plasma, geometric mean (geometric SD)): 6.6 h
AUC(0-t) ([1]; male, human, plasma, oral, 600 mg, venetoclax 600 mg (N = 3) with enzalutamide 160 mg/d, plasma, geometric mean (geometric SD), read-out: D29 AUC0-24): 9110 ng·h/mL
Cmax ([1]; male, human, plasma, oral, 600 mg, venetoclax 600 mg (N = 3) with enzalutamide 160 mg/d, plasma, geometric mean (geometric SD), read-out: D29 Cmax): 554 ng/mL
AUC(0-inf) [1, 5]: 14600 ng·h/mL
Tmax [1, 5]: 5.6 h
AUC(0-t) ([1]; male, human, plasma, oral, 800 mg, venetoclax 800 mg (N = 4) with enzalutamide 160 mg/d, plasma, geometric mean (geometric SD), read-out: D1 AUC0-last): 8760 ng·h/mL
Cmax ([1]; male, human, plasma, oral, 800 mg, venetoclax 800 mg (N = 4) with enzalutamide 160 mg/d, plasma, geometric mean (geometric SD), read-out: D1 Cmax): 979 ng/mL
half-life ([1]; male, human, plasma, oral, 800 mg, venetoclax 800 mg (N = 4) with enzalutamide 160 mg/d, plasma, geometric mean (geometric SD)): 9.4 h
AUC(0-inf) [1, 6]: 16600 ng·h/mL
Tmax [1, 6]: 6.9 h
Cmax ([1]; male, human, plasma, oral, Total (N = 10), venetoclax 400–800 mg with enzalutamide 160 mg/d, geometric mean (geometric SD), read-out: D1 Cmax): 917 ng/mL
half-life ([1]; male, human, plasma, oral, Total (N = 10), venetoclax 400–800 mg with enzalutamide 160 mg/d, geometric mean (geometric SD)): ~9 h
Cmax ([1]; male, human, plasma, oral, Total, venetoclax 400–800 mg with enzalutamide 160 mg/d, N = 3, 3, and 1 on D29, geometric mean (geometric SD), read-out: D29 Cmax): 765 ng/mL
Ratio D29/D1 (day 29 AUC0–24 over day 1 AUC0-inf) ([1]; venetoclax 400 mg (N = 3) with enzalutamide 160 mg/d, geometric mean (geometric SD)): 0.95 (1.99)
D1 Cl/F [1, 7]: 36.2 (1.27) L/h
D1 Cmax/Dose [1, 7]: 1.64 (1.29) µg/L/mg
D15 Cmin [1, 7]: 180 (1.72) µg/L
Ratio D29/D1 (day 29 AUC0–24 over day 1 AUC0-inf) ([1]; venetoclax 600 mg (N = 3) with enzalutamide 160 mg/d, geometric mean (geometric SD)): 0.62 (5.32)
D1 Cl/F [1, 8]: 41.2 (1.65) L/h
D1 Cmax/Dose [1, 8]: 1.95 (1.79) µg/L/mg
D15 Cmin [1, 8]: 214 (2.30) µg/L
D1 Cl/F [1, 9]: 48.1 (2.31) L/h
D1 Cmax/Dose [1, 9]: 1.22 (1.50) µg/L/mg
D15 Cmin [1, 9]: 177 (2.89) µg/L
Ratio D29/D1 (day 29 AUC0–24 over day 1 AUC0-inf) ([1]; venetoclax 800 mg with enzalutamide 160 mg/d, N = 1 on D29): 0.79
Interpatient variability in Cmin ([1]; venetoclax, approximated from geometric SD (2.17–1)*100): ~117 %CV
Intrapatient variability in Cmin ([1]; venetoclax, from day 8 through 57, across doses): 51 %CV
SMILES: CC1(C)CCC(CN2CCN(c3ccc(C(=O)NS(=O)(=O)c4ccc(NCC5CCOCC5)c([N+](=O)[O-])c4)c(Oc4cnc5[nH]ccc5c4)c3)CC2)=C(c2ccc(Cl)cc2)C1 [venetoclax]
Growth of AR−/lo LAPC9-CRPC (AR−/lo LAPC9-CRPC): greatly inhibited
Average steady-state venetoclax concentration required for a 50% tumor shrinkage (CLL): 146 µg/L
Average steady-state venetoclax concentration that decreases lymphocyte counts by 50% from baseline (CLL): 8.63 µg/L
Extension of PFS with a doubling of dose (CLL): 6 months

Source: paper PMC12662848 (Cancer Chemotherapy and Pharmacology, 2025)
